Measured values reported in patent publication US8173682B2, “Substituted pyridones as inhibitors of poly(ADP-ribose) polymerase (PARP)” (Aventis Pharmaceuticals Inc., priority 2004, dated 2012).
Structures can show the parent of a compound that is named as a salt.

Experiments:
[1] = tested on: intracellular synthesis of poly(ADP-ribose) in HL60 cells; assay: Cell-based PARP assay (poly(ADP-ribose) immunodetection in fixed cells); conditions: Homo sapiens, HL-60, overnight incubation with compound, serum-free media
Procedure: The following example illustrates the efficacy of the compounds of this invention in inhibiting the effects of PARP in a cell based assay.
Reagents: Media RMPI 1640+Glutamax: Gibco 61870-044); TBST/milk, TBST (Sigma T93039) containing 5% skimmed milk (Nestle Carnation nonfat dry milk)
HL60 cells at […] in serum free media are seeded into the wells of a 96-well plate at 100 μL/well. The plate is pre-incubated for 3 hr under normal tissue culture conditions. One hundred μL of serum-free media containing compound at 2× the required concentration in 0.6% DMSO are added (or 0.6% DMSO only to controls and blanks). The plate is incubated overnight under normal tissue culture conditions, then centrifuged at 190×g for 5 min at 4° C. to pellet cells. The media is carefully removed by aspiration, and the cells are incubated in 100 μL/well ice-cold 0.56% KCl for 2 min on ice. The plate is centrifuged as above to pellet cells, the KCl removed by aspiration, and 100 μL/well ice-cold methanol added. After 4 min on ice, methanol is removed by aspiration and the cells air-dried for 10-15 min at rt. The cells are washed with PBS×3, then washed with TBST/milk (1 wash, 5 min incubation at rt). The cells are incubated with 100 μL/well 0.25% Triton X 100 in PBS for 10 min at RT, then washed x# with PBS and ×1 with TBST. The cells are blocked for 1 hr with TBST/milk (200 μL/well) and then washed ×1 with TBST. The fixed cells are incubated with primary antibody (Calbiochem cat no. 528815) at 1:2000 dilution in TBST/milk (100 μL/well, overnight at 4 deg C.). The cells are washed with TBST (2 rinses, 1×15 min, 2×5 min at RT). The cells are incubated with secondary antibody (anti-rabbit Ig-biotin conjugate, Amersham RPN1004) in TBST/milk at 1:3500 dilution, 100 μL/well for 1 hr at RT. The cells are washed with TBST (2 rinses, 1×15 min, 2×5 min at RT). The cells are then incubated with 100 μL/well of 4-MUP (Sigma, M3168) in the dark for 4 hrs. The fluorescence is read using a plate reader (excitation at 360 nm, emission at 440 nm). To calculate compound effects, the fluorescence of the blank (no cells) is subtracted from all data. Fluorescence obtained with a standard cell-permeable potent inhibitor at 30 μM is subtracted from all other groups as this appears to represent a true blank. Compound effects can then be determined: a PARP inhibitor blocks the intracellular synthesis of poly(ADP-ribose), and results in a decreased reactivity (reduced final fluorescence) with primary antibody in the fixed and permeabilized cells.
The results obtained from this study are expressed as EC50 (median effective concentration of the test compound that was effective in preventing the cell death—expressed in micromolar (μM) concentration) for each of the tested compounds and are summarized in Table 2.

[2] = target: T1, recombinant human PARP (PARP1) (Homo sapiens, UniProt P09874); assay: PARP enzyme assay, Method A (radioactivity or 'ELISA' enzyme assay with partially purified enzyme); format: biochemical; conditions: recombinant human PARP preparation, radioactive or ELISA enzyme assay
T1 construct: Full length human PARP (PARP1) is assembled from PCR fragments; His6 tag with TEV site, from the pFastBac-HTb vector (own knowledge of the vector); made in house; host or cells: insect cells, baculovirus (Bac-to-Bac, Gibco-BRL)
T1 sequence (P09874 whole entry, the tested form may be a part): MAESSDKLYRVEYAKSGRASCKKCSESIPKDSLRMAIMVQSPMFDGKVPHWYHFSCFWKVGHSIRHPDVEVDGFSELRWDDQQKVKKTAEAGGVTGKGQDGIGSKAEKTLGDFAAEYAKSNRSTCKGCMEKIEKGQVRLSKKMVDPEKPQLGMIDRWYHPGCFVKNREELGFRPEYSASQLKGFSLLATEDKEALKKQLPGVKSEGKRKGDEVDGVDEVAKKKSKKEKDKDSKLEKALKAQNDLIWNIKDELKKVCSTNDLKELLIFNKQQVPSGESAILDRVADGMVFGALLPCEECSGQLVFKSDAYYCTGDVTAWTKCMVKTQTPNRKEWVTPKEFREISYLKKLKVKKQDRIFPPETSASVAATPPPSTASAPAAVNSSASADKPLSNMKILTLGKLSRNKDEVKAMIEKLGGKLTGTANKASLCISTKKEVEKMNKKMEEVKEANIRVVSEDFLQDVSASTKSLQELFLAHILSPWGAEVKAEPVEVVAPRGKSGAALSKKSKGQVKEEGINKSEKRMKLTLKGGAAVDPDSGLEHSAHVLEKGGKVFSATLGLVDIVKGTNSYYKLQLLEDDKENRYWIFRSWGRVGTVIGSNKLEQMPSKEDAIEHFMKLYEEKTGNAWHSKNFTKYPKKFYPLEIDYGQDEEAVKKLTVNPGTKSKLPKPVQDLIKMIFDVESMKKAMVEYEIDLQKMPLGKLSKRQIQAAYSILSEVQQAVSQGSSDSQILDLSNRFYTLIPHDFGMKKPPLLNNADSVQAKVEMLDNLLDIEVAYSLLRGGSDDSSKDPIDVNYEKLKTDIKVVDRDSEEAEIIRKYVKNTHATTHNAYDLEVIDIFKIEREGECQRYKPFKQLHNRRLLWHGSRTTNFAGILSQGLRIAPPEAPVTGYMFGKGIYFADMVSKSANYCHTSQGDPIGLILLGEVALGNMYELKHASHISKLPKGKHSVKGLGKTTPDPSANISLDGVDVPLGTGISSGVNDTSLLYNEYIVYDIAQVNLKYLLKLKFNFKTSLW
In short: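 Partially purified recombinant full-length His-tagged human PARP1, baculovirus-expressed. Radioactive format: 100 μg/mL sonicated DNA, 100 μg/mL histones, 100 mM Tris pH 8.0, 10 mM MgCl2, 200 μM labeled NAD, 10 min 37 °C or 60 min RT, TCA-precipitated counts. ELISA format: 250 μM NAD plus biotin-NAD on histone plates, TMB A450.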

[3] = target: recombinantly expressed human PARP-1 enzyme (Homo sapiens, UniProt P09874); assay: PARP enzyme assay, Method B (tritium-labeled NAD incorporation); format: biochemical; conditions: Method B; 200 μM NAD, room temperature 1 hour, pH 8.0; read-out: IC50 (μM)/Method B
Sequence of recombinantly expressed human PARP-1 enzyme (P09874 whole entry): as the sequence (P09874 whole entry, the tested form may be a part) above
In short: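 DNA-activated purified recombinant enzyme (2 μg/mL) incubated with test compound for 1 h at room temperature, pH 8.0, with 200 μM NAD plus tritiated NAD, DNA and histones. TCA-precipitated radiolabelled protein collected on glass-fibre filters and counted; IC50 is the concentration halving incorporation versus no-inhibitor control.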

Row | EC50 [1] | IC50 [2] | IC50 [3] | Structure (SMILES)
1 | 500 nM | 0.2 µM |  | Cc1[nH]c(=O)c2c(c1-c1cccc(C#N)c1)CCCC2 [Example 5, 3-(3-Methyl-1-oxo-1,2,5,6,7,8-hexahydroisoquinolin-4-yl)benzonitrile]
2 | 120 nM | 0.31 µM |  | CCc1cc(-c2noc(C)n2)c(C)[nH]c1=O [Example 22, 3-Ethyl-6-methyl-5-(5-methyl-1,2,4-oxadiazol-3-yl)-1H-pyridin-2-one]
3 | 4880 nM | 0.76 µM |  | CCc1cc(-c2ccc(S(=O)(=O)N3CCN(c4ccc(F)cc4)CC3)s2)c(C)[nH]c1=O [Example 25, 3-Ethyl-5-{5-[4-(4-fluorophenyl)piperazine-1-sulfonyl]thiophen-2-yl}-6-methyl-1H-pyridin-2-one]
4 | 2940 nM | 0.19 µM |  | CCc1cc(-c2ccc(S(=O)(=O)NCc3ccc(C(F)(F)F)cc3)s2)c(C)[nH]c1=O [Example 26, 5-(5-Ethyl-2-methyl-6-oxo-1,6-dihydropyridin-3-yl)thiophene-2-sulfonic acid 4-trifluoromethylbenzylamide]
5 | 14200 nM | 0.1 µM |  | CCc1cc(-c2ccc(S(=O)(=O)NCc3cc(F)cc(F)c3)s2)c(C)[nH]c1=O [Example 27, 5-(5-Ethyl-2-methyl-6-oxo-1,6-dihydropyridin-3-yl)thiophene-2-sulfonic acid 3,5-difluorobenzylamide]
6 | 500 nM | 0.07 µM |  | CCc1cc(-c2ccc(S(=O)(=O)NC3CCN(Cc4ccccc4)CC3)s2)c(C)[nH]c1=O [Example 39, 5-(5-Ethyl-2-methyl-6-oxo-1,6-dihydropyridin-3-yl)thiophene-2-sulfonic acid (1-benzylpiperidin-4-yl)amide hydrochloride]
7 | 430 nM | 0.42 µM |  | CCc1cc(-c2ccc(S(=O)(=O)NCCCN3CCCCC3)s2)c(C)[nH]c1=O [Example 63, 5-(5-Ethyl-2-methyl-6-oxo-1,6-dihydro-pyridin-3-yl)-thiophene-2-sulfonic acid (3-piperidin-1-yl-propyl)-amide hydrochloride]
8 | 3110 nM | 0.3 µM |  | CCc1cc(-c2ccc(S(=O)(=O)N3CCC(N4CCCCC4)CC3)s2)c(C)[nH]c1=O [Example 67, 3-Ethyl-6-methyl-5-{5-[(4-piperidin-1-yl)piperidine-1-sulfonyl]thiophen-2-yl}-1H-pyridin-2-one hydrochloride]
9 | 260 nM | 0.26 µM |  | CCc1cc(-c2ccc(S(=O)(=O)N3CCCC(Cn4ccnc4)C3)s2)c(C)[nH]c1=O (stereo not drawn) [Example 70, 3-Ethyl-5-{5-[(3-imidazo-1-yl)methylpiperidine-1-sulfonyl]thiophene-2-yl}-6-methyl-1H-pyridin-2-one hydrochloride]
10 | 330 nM | 0.31 µM |  | CCc1cc(-c2ccc(S(=O)(=O)N3CCC(O)C3)s2)c(C)[nH]c1=O (stereo not drawn) [Example 85, 3-Ethyl-5-[5-(3-hydroxypyrrolidine-1-sulfonyl)thiophen-2-yl]-6-methyl-1H-pyridin-2-one]
11 | 560 nM | 0.85 µM |  | CCc1cc(-c2ccc(S(=O)(=O)NCCN(C)C)s2)c(C)[nH]c1=O [Example 93, 5-(5-Ethyl-2-methyl-6-oxo-1,6-dihydropyridin-3-yl)thiophene-2-sulfonic acid (2-dimethylaminoethyl)amide hydrochloride]
12 | 220 nM | 0.2 µM |  | CCc1cc(-c2ccc(S(=O)(=O)NCCN3CCCC3)s2)c(C)[nH]c1=O [Example 95, 5-(5-Ethyl-2-methyl-6-oxo-1,6-dihydropyridin-3-yl)thiophene-2-sulfonic acid (2-pyrrolidin-1-yl)ethylamide hydrochloride]
13 | 50 nM | 0.17 µM |  | CCc1cc(-c2ccc(S(=O)(=O)NCc3cccnc3)s2)c(C)[nH]c1=O [Example 101, 5-(5-Ethyl-2-methyl-6-oxo-1,6-dihydropyridin-3-yl)-thiophene-2-sulfonic acid (pyridin-3-ylmethyl)amide hydrochloride]
14 | 30 nM | 0.08 µM |  | CCc1cc(-c2ccc(S(=O)(=O)NCCc3cccnc3)s2)c(C)[nH]c1=O [Example 107, 5-(5-Ethyl-2-methyl-6-oxo-1,6-dihydropyridin-3-yl)thiophene-2-sulfonic acid (2-pyridin-3-yl-ethyl)amide hydrochloride]
15 | 240 nM | 0.1 µM |  | CCc1cc(-c2ccc(S(=O)(=O)NCCc3ccncc3)s2)c(C)[nH]c1=O [Example 109, 5-(5-Ethyl-2-methyl-6-oxo-1,6-dihydropyridin-3-yl)thiophene-2-sulfonic acid (2-pyridin-4-yl-ethyl)amide hydrochloride]
16 | 20 nM | 0.08 µM |  | CCc1cc(-c2ccc(S(=O)(=O)NCc3ccncc3)s2)c(C)[nH]c1=O [Example 110, 5-(5-ethyl-2-methyl-6-oxo-1,6-dihydropyridin-3-yl)thiophene-2-sulfonic acid (pyridin-4-ylmethyl)amide hydrochloride]
17 | 30000 nM | 0.15 µM |  | CCc1cc(-c2ccc(S(=O)(=O)NCc3nc4ccccc4[nH]3)s2)c(C)[nH]c1=O [Example 118, 5-(5-Ethyl-2-methyl-6-oxo-1,6-dihydro-pyridin-3-yl)thiophene-2-sulfonic acid (1H-benzimidazol-2-ylmethyl)amide hydrochloride]
18 | 800 nM | 0.38 µM |  | CCc1cc(-c2ccc(S(=O)(=O)NCCNC(C)=O)s2)c(C)[nH]c1=O [Example 119, N-{2-[5-(5-Ethyl-2-methyl-6-oxo-1,6-dihydropyridin-3-yl)thiophene-2-sulfonylamino]ethyl}acetamide]
19 | 30800 nM | 0.43 µM |  | CCc1cc(-c2ccc(CN3CCCC(O)C3)s2)c(C)[nH]c1=O (stereo not drawn) [Example 126, 3-Ethyl-5-[5-(3-hydroxypiperidin-1-ylmethyl)thiophen-2-yl]-6-methyl-1H-pyridin-2-one hydrochloride]
20 | 12200 nM | 0.35 µM |  | CCc1cc(-c2ccc(CNC(C)c3ccccc3)s2)c(C)[nH]c1=O (stereo not drawn) [Example 135, 3-Ethyl-6-methyl-5-{5-[(1-phenyl-ethylamino)-methyl]thiophen-2-yl}-1H-pyridin-2-one hydrochloride]
21 | 14700 nM | 0.46 µM |  | CCc1cc(-c2ccc(CNC(C)CCc3ccccc3)s2)c(C)[nH]c1=O (stereo not drawn) [Example 136, 3-Ethyl-6-methyl-5-{5-[(1-methyl-3-phenyl-propylamino)-methyl]thiophen-2-yl}-1H-pyridin-2-one hydrochloride]
22 |  |  | 1.26 µM | CCc1cc(-c2ccc(CNC(=O)c3cccc(N(C)C)c3)o2)c(C)[nH]c1=O [Example 275, 3-Dimethylamino-N-[5-(5-ethyl-2-methyl-6-oxo-1,6-dihydro-pyridin-3-yl)-furan-2-ylmethyl]-benzamide]
23 |  |  | 0.8 µM | CCc1cc(-c2ccc(CNC(=O)CN3CCCC3)s2)c(C)[nH]c1=O [Example 276, N-[5-(5-Ethyl-2-methyl-6-oxo-1,6-dihydropyridin-3-yl)-thiophen-2-ylmethyl]-2-pyrrolidin-1-yl-acetamide]
24 |  |  | 7.9 µM | CCc1cc(-c2cccc(NS(=O)(=O)c3ccc(NC(C)=O)cc3)n2)c(C)[nH]c1=O [Example 278, N-[4-(5′-Ethyl-2′-methyl-6′-oxo-1′,6′-dihydro-[2,3′]bipyridinyl-6-ylsulfamoyl)-phenyl]-acetamide]
